Assay results reported in US20230072683A1, “PYRIDO-PYRIMIDIN DERIVATIVES AND PHARMACEUTICAL COMPOSITION, FOR USE IN PREVENTING OR TREATING PI3 KINASE RELATED DISEASES, COMPRISING SAME AS ACTIVE INGREDIENT” (BORYUNG PHARMACEUTICAL CO., LTD, priority 2019, published 2023).
Where two headings read alike, the source gives them in different places.

Experiments:
[1] = target: PI3K-δ (PI3K(p1108/p857) (h)) (Homo sapiens, UniProt O00329); assay: Evaluation of inhibitory activity against PI3K-δ (HTRF kinase assay); assay type: biochemical; conditions: for inhibition at 0.01 µM: compound concentration 0.01 μM, read-out: EXP_VALUE(% Inhibition) PI3K-δ 0.01 μM; for inhibition at 0.1 µM: read-out: EXP_VALUE(% Inhibition) PI3K-δ 0.1 μM
Outline: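 HTRF read-out (665/620 nm ratio ×10000) used Eu-labelled anti-GST, GST-tagged GRP1 PH domain and streptavidin-allophycocyanin after EDTA/PIP3 stop.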

DNA-PK(h) = DNA-PK(h) (Homo sapiens, UniProt P78527); assay: Evaluation of inhibitory activity against DNA-PK (HTRF kinase assay, GST-cMyc-p53 substrate); assay type: biochemical; conditions: for inhibition at 0.01 µM: compound concentration 0.01 μM, read-out: EXP_VALUE(% Inhibition) DNA-PK(h) 0.01 μM; for inhibition at 0.1 µM: read-out: EXP_VALUE(% Inhibition) DNA-PK(h) 0.1 μM
Outline: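 p53 Ser15 phosphorylation by human DNA-PK was measured by time-resolved FRET ratio (665/620 nm ×10000) using Eu-labelled anti-phospho-Ser15 and d2 anti-GST antibodies. Substrate GST-cMyc-p53 at 50 μM; Mg/ATP-initiated, 30 min at room temperature, EDTA stop.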

PI3K-δ (PI3K(p1108/p857) (h)), sequence (O00329 whole entry, the tested form may be a part): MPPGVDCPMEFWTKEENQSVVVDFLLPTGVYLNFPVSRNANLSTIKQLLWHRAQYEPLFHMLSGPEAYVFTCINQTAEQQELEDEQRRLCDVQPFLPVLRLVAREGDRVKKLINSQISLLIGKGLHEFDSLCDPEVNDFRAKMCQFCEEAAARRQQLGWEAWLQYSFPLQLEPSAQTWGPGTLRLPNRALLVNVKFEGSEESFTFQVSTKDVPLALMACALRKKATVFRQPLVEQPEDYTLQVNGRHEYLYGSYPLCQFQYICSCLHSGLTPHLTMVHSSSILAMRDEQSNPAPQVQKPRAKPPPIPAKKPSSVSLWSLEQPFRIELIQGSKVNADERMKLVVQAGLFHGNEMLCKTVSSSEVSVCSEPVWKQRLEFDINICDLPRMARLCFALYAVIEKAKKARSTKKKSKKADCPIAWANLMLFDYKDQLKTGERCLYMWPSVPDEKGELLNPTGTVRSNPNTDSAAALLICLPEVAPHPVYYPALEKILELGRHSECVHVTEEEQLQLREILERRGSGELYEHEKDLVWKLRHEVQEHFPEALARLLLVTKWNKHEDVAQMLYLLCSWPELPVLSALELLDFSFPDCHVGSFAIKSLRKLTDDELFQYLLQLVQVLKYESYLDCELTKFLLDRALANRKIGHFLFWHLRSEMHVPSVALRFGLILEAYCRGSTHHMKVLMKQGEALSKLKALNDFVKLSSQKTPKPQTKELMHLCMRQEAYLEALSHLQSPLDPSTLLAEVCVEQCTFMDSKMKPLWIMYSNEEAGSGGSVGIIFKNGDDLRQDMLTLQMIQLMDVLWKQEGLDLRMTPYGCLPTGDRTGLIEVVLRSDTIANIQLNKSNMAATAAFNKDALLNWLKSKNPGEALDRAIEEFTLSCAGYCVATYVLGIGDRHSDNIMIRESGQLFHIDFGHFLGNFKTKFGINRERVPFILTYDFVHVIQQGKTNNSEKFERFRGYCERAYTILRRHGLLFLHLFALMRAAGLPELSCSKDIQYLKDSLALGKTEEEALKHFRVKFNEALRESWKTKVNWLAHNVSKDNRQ
PI3K-δ (PI3K(p1108/p857) (h)), sequence (P27986 whole entry partner, the tested form may be a part): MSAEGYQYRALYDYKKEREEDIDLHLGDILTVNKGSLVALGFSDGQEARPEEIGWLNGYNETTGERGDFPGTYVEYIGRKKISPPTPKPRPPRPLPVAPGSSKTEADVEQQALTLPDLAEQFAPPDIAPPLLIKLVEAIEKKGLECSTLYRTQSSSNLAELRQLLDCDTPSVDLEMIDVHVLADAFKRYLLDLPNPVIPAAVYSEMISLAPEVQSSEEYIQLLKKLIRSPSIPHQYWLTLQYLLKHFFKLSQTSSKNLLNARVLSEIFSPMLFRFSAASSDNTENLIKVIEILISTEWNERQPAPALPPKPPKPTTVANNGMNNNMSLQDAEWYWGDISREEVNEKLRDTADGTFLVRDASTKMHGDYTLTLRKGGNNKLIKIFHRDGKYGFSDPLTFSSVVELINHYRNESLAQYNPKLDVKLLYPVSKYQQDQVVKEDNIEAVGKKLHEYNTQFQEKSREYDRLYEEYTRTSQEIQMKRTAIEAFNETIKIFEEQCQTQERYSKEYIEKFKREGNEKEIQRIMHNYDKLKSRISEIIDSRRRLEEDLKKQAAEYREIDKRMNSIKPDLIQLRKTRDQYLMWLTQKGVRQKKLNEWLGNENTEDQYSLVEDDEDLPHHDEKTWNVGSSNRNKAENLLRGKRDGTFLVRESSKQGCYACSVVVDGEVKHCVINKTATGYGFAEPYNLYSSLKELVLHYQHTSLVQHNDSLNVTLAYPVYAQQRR

SMILES	inhibition at 0.01 µM [1]	inhibition at 0.1 µM ([1]; compound concentration 0.1 μM)	inhibition at 0.01 µM (DNA-PK(h))	inhibition at 0.1 µM (DNA-PK(h); compound concentration 0.1 μM)	inhibition at 0.1 µM ([1]; compound at 0.1 μM)	inhibition at 0.1 µM (DNA-PK(h); compound at 0.1 μM)
CC(C)c1ncc(-c2cccc3c(Cl)c([C@H](C)Nc4ncnc5[nH]ccc(=O)c45)n(-c4ccccc4)c(=O)c23)cn1 [Example 381, (S)-4-((1-(4-chloro-8-(2-isopropylpyrimidin-5-yl)-1-oxo-2-phenyl-1,2-dihydroisoquinolin-3-yl)ethyl)amino)pyrido[2,3-d]pyrimidin-5(8H)-one]					81%	69%
C[C@H](Nc1ncnc2[nH]ccc(=O)c12)c1c(Cl)c2cccc(-c3ccc4cnoc4c3)c2c(=O)n1-c1ccccc1 [Example 24, (S)-4-((1-(8-(benzo[d]isoxazol-6-yl)-4-chloro-1-oxo-2-phenyl-1,2-dihydroisoquinolin-3-yl)ethyl)amino)pyrido[2,3-d]pyrimidin-5(8H)-one]	61%		85%			
C[C@H](Nc1ncnc2[nH]ccc(=O)c12)c1c(Cl)c2cccc(OCc3ccccc3)c2c(=O)n1-c1ccccc1 [Example 362, (S)-4-((1-(8-(benzyloxy)-4-chloro-1-oxo-2-phenyl-1,2-dihydroisoquinolin-3-yl)ethyl)amino)pyrido[2,3-d]pyrimidin-5(8H)-one]	21%	64%	29%	67%		
C[C@H](Nc1ncnc2[nH]ccc(=O)c12)c1c(Cl)c2cccc(-c3cc(F)cc(Cl)c3)c2c(=O)n1-c1ccccc1 [Example 104, (S)-4-((1-(4-chloro-8-(3-chloro-5-fluorophenyl)-1-oxo-2-phenyl-1,2-dihydroisoquinolin-3-yl)ethyl)amino)pyrido[2,3-d]pyrimidin-5(8H)-one]	63%	95%	16%	66%		
C[C@H](Nc1ncnc2[nH]ccc(=O)c12)c1cc2cccc(-c3ccc(C#N)cc3)c2c(=O)n1-c1ccccc1 [Example 23, (S)-4-(1-oxo-3-(1-((5-oxo-5,8-dihydropyrido[2,3-d]pyrimidin-4-yl)amino)ethyl)-2-phenyl-1,2-dihydroisoquinolin-8-yl)benzonitrile]	82%	96%	38%	85%		
C[C@H](Nc1ncnc2[nH]ccc(=O)c12)c1c(Cl)c2cccc(OCc3ccncc3)c2c(=O)n1-c1ccccc1 [Example 429, (S)-4-((1-(4-chloro-1-oxo-2-phenyl-8-(pyridin-4-ylmethoxy)-1,2-dihydroisoquinolin-3-yl)ethyl)amino)pyrido[2,3-d]pyrimidin-5(8H)-one]					47%	63%
C[C@H](Nc1ncnc2[nH]ccc(=O)c12)c1c(Cl)c2cccc(-c3cnc(OCc4ccccc4)nc3)c2c(=O)n1-c1ccccc1 [Example 146, (S)-4-((1-(8-(2-(benzyloxy)pyrimidin-5-yl)-4-chloro-1-oxo-2-phenyl-1,2-dihydroisoquinolin-3-yl)ethyl)amino)pyrido[2,3-d]pyrimidin-5(8H)-one]	84%		35%			
C[C@H](Nc1ncnc2[nH]ccc(=O)c12)c1c(Cl)c2cccc(N3C[C@]4(C)C[C@H]3CC(C)(C)C4)c2c(=O)n1-c1ccccc1 [Example 327, 4-(((S)-1-(4-chloro-1-oxo-2-phenyl-8-((1S,5R)-1,3,3-trimethyl-6-azabicyclo[3.2.1]octan-6-yl)-1,2-dihydroisoquinolin-3-yl)ethyl)amino)pyrido[2,3-d]pyrimidin-5(8H)-one]	4%	25%	-13%	8%		
C[C@H](Nc1ncnc2[nH]ccc(=O)c12)c1c(Cl)c2cccc(N3CCC(N4CCCCC4)CC3)c2c(=O)n1-c1ccccc1 [Example 10, (S)-4-((1-(8-([1,4′-bipiperidin]-1′-yl)-4-chloro-1-oxo-2-phenyl-1,2-dihydroisoquinolin-3-yl)ethyl)amino)pyrido[2,3-d]pyrimidin-5(8H)-one]	40%	70%	15%	73%		
C[C@H](Nc1ncnc2[nH]ccc(=O)c12)c1c(Cl)c2cccc(S(=O)(=O)c3ncccn3)c2c(=O)n1-c1ccccc1 [Example 420, (S)-4-((1-(4-chloro-1-oxo-2-phenyl-8-(pyrimidin-2-ylsulfonyl)-1,2-dihydroisoquinolin-3-yl)ethyl)amino)pyrido[2,3-d]pyrimidin-5(8H)-one]					37%	36%
C[C@H](Nc1ncnc2[nH]ccc(=O)c12)c1c(Cl)c2cccc(-c3cnc(C4(O)CCC4)nc3)c2c(=O)n1-c1ccccc1 [Example 438, (S)-4-((1-(4-chloro-8-(2-(1-hydroxycyclobutyl)pyrimidin-5-yl)-1-oxo-2-phenyl-1,2-dihydroisoquinolin-3-yl)ethyl)amino)pyrido[2,3-d]pyrimidin-5(8H)-one]					87%	64%

More lines, now with the values ahead:

inhibition at 0.01 µM [1]	inhibition at 0.1 µM ([1]; compound concentration 0.1 μM)	inhibition at 0.01 µM (DNA-PK(h))	inhibition at 0.1 µM (DNA-PK(h); compound concentration 0.1 μM)	inhibition at 0.1 µM ([1]; compound at 0.1 μM)	inhibition at 0.1 µM (DNA-PK(h); compound at 0.1 μM)	SMILES
84%	99%	35%	87%			C[C@H](Nc1ncnc2[nH]ccc(=O)c12)c1c(Cl)c2cccc(-c3cccc(Cl)c3)c2c(=O)n1-c1ccccc1 [Example 97, (S)-4-((1-(4-chloro-8-(3-chlorophenyl)-1-oxo-2-phenyl-1,2-dihydroisoquinolin-3-yl)ethyl)amino)pyrido[2,3-d]pyrimidin-5(8H)-one]
66%	94%	58%	93%			C[C@H](Nc1ncnc2[nH]ccc(=O)c12)c1c(Cl)c2cccc(-c3cccc(F)c3)c2c(=O)n1-c1ccccc1 [Example 123, (S)-4-((1-(4-chloro-8-(3-fluorophenyl)-1-oxo-2-phenyl-1,2-dihydroisoquinolin-3-yl)ethyl)amino)pyrido[2,3-d]pyrimidin-5(8H)-one]
13%		17%				C[C@H](Nc1ncnc2[nH]ccc(=O)c12)c1c(Cl)c2cccc(NC(=O)c3ccccc3)c2c(=O)n1-c1ccccc1 [Example 299, (S)—N-(4-chloro-1-oxo-3-(1-((5-oxo-5,8-dihydropyrido[2,3-d]pyrimidin-4-yl)amino)ethyl)-2-phenyl-1,2-dihydroisoquinolin-8-yl)benzamide]
18%	62%	7%	25%			C[C@H](Nc1ncnc2[nH]ccc(=O)c12)c1c(Cl)c2cccc(N(C)Cc3ccccc3)c2c(=O)n1-c1ccccc1 [Example 319, (S)-4-((1-(8-(benzyl(methyl)amino)-4-chloro-1-oxo-2-phenyl-1,2-dihydroisoquinolin-3-yl)ethyl)amino)pyrido[2,3-d]pyrimidin-5(8H)-one]
50%	91%	45%	89%			C[C@H](Nc1ncnc2[nH]ccc(=O)c12)c1c(Cl)c2cccc(-c3ncon3)c2c(=O)n1-c1ccccc1 [Example 351, (S)-4-((1-(4-chloro-8-(1,2,4-oxadiazol-3-yl)-1-oxo-2-phenyl-1,2-dihydroisoquinolin-3-yl)ethyl)amino)pyrido[2,3-d]pyrimidin-5(8H)-one]
92%		63%				CC(=O)c1cccc2c(Cl)c([C@H](C)Nc3ncnc4[nH]ccc(=O)c34)n(-c3ccccc3)c(=O)c12 [Example 267, (S)-4-((1-(8-acetyl-4-chloro-1-oxo-2-phenyl-1,2-dihydroisoquinolin-3-yl)ethyl)amino)pyrido[2,3-d]pyrimidin-5(8H)-one]
9%		45%				CCCCC(=O)Nc1cccc2c(Cl)c([C@H](C)Nc3ncnc4[nH]ccc(=O)c34)n(-c3ccccc3)c(=O)c12 [Example 297, (S)—N-(4-chloro-1-oxo-3-(1-((5-oxo-5,8-dihydropyrido[2,3-d]pyrimidin-4-yl)amino)ethyl)-2-phenyl-1,2-dihydroisoquinolin-8-yl)pentanamide]
69%	96%	39%	76%			C[C@H](Nc1ncnc2[nH]ccc(=O)c12)c1c(Cl)c2cccc(Sc3ccncc3)c2c(=O)n1-c1ccccc1 [Example 370, (S)-4-((1-(4-chloro-1-oxo-2-phenyl-8-(pyridin-4-ylthio)-1,2-dihydroisoquinolin-3-yl)ethyl)amino)pyrido[2,3-d]pyrimidin-5(8H)-one]
				8%	24%	C[C@H](Nc1ncnc2[nH]ccc(=O)c12)c1c(Cl)c2cccc(S(=O)(=O)C(C)(C)C)c2c(=O)n1-c1ccccc1 [Example 433, (S)-4-((1-(8-(tert-butylsulfonyl)-4-chloro-1-oxo-2-phenyl-1,2-dihydroisoquinolin-3-yl)ethyl)amino)pyrido[2,3-d]pyrimidin-5(8H)-one]
96%		53%				C[C@H](Nc1ncnc2[nH]ccc(=O)c12)c1c(Cl)c2cccc(-c3cc(O)ncn3)c2c(=O)n1-c1ccccc1 [Example 50, (S)-4-((1-(4-chloro-8-(6-hydroxypyrimidin-4-yl)-1-oxo-2-phenyl-1,2-dihydroisoquinolin-3-yl)ethyl)amino)pyrido[2,3-d]pyrimidin-5(8H)-one]
